Source: patent EP1935986B1, “Luminogenic and fluorogenic compounds and methods to detect molecules or conditions” (priority 2005, dated 2006)

Biological target: T1, QuantiLum Luciferase (Photinus pyralis, UniProt P08659)
T1 construct: purchased Promega Corporation E170
Assay: Scaffolds: light emission of luciferin derivatives with QuantiLum luciferase alone, + Co A, + DTT, + Co A and DTT
Format: biochemical, firefly
Conditions: Derivative Conc. 1.07; Alone
Procedure: The DTT, Coenzyme A, and QuantiLum stock solutions are the same as those described herein.
This solution was diluted 1:1 with water to produce an enzyme solution labeled "No addition." This solution was diluted 1:1 with 400 mM DTT, pH 8.0 to produce a solution labeled +DTT. This solution was diluted 1:1 with 4 mM Coenzyme A to produce a solution labeled + Co A. Finally, this solution was diluted 1:1 with a solution having both 4 mM Coenzyme A and 400 mM DTT to produce a solution labeled +Co A & DTT.
50 µl samples of these solutions were placed in the wells of luminometer microtiter plates, row A to row G, respeutivly. Row H of the plates was given 50 µl of water.
Reactions in these plates were initiated by addition of 50 µl of solution containing QuantiLum luciferase using a 12 channel micropipette. The solutions added to the rows were: columns 1, 5, and 9 - no addition solution; columns 2, 6, and 10 - + Co A solution; columns 3, 7, and 11 + DTT solution, and; columns 4, 8, and 12 - + Co A and DTT solution. After addition of the enzyme solution to the first row on every plate, a timer was started. After addition of the enzyme solution to the last row on each plate, the plate was sealed and read on a Veritas luminometer.

T1 sequence (P08659 whole entry): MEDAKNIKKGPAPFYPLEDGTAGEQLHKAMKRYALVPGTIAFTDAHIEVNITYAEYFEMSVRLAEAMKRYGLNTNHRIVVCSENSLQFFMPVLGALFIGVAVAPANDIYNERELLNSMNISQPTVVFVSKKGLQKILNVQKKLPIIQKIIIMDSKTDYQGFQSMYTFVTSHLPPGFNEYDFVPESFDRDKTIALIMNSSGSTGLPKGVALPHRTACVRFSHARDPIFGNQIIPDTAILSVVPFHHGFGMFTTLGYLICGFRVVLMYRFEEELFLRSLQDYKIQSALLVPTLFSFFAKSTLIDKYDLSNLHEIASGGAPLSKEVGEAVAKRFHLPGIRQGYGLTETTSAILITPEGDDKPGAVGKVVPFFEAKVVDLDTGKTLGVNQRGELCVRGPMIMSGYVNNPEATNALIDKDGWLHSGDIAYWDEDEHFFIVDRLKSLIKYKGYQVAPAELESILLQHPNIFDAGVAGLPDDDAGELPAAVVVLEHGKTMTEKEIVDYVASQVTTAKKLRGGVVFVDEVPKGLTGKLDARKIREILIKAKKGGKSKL

Q: With `COC(=O)[C@H]1CSC(c2ccc3cc(Oc4ccc(C(F)(F)F)cc4[N+](=O)[O-])ccc3n2)=N1` [GST #4] as the compound, how does the light emission values read?
A: Its light emission values is 1146.

Same assay, conditions: Derivative Conc. 1.07; Co A

Q: Which light emission values does the source give for `COC(=O)[C@H]1CSC(c2ccc3cc(Oc4ccc(C(F)(F)F)cc4[N+](=O)[O-])ccc3n2)=N1` [GST #4] here?
A: The light emission values was 1533.

Same assay, conditions: Derivative Conc. 1.07; Co A + DTT

Q: Which light emission values does the source give for `COC(=O)[C@H]1CSC(c2ccc3cc(Oc4ccc(C(F)(F)F)cc4[N+](=O)[O-])ccc3n2)=N1` [GST #4] here?
A: Its light emission values is 1714.

Same assay, conditions: Derivative Conc. 1.07; DTT

Q: Which light emission values does the source give for `COC(=O)[C@H]1CSC(c2ccc3cc(Oc4ccc(C(F)(F)F)cc4[N+](=O)[O-])ccc3n2)=N1` [GST #4] here?
A: Its light emission values is 1102.

Same assay, conditions: Derivative Conc. 3.13; Alone

Q: For `COC(=O)[C@H]1CSC(c2ccc3cc(Oc4ccc(C(F)(F)F)cc4[N+](=O)[O-])ccc3n2)=N1` [GST #4], which light emission values is on record?
A: The light emission values was 1537.

Same assay, conditions: Derivative Conc. 3.13; Co A

Q: How did the light emission values turn out when `COC(=O)[C@H]1CSC(c2ccc3cc(Oc4ccc(C(F)(F)F)cc4[N+](=O)[O-])ccc3n2)=N1` [GST #4] was run?
A: Its light emission values is 1635.

Same assay, conditions: Derivative Conc. 3.13; Co A + DTT

Q: How did the light emission values turn out when `COC(=O)[C@H]1CSC(c2ccc3cc(Oc4ccc(C(F)(F)F)cc4[N+](=O)[O-])ccc3n2)=N1` [GST #4] was run?
A: The light emission values was 2034.

Same assay, conditions: Derivative Conc. 3.13; DTT

Q: `COC(=O)[C@H]1CSC(c2ccc3cc(Oc4ccc(C(F)(F)F)cc4[N+](=O)[O-])ccc3n2)=N1` [GST #4] was tested. Which light emission values did it give?
A: Its light emission values is 1458.

Same assay, conditions: Derivative Conc. 6.25; Alone

Q: How did the light emission values turn out when `COC(=O)[C@H]1CSC(c2ccc3cc(Oc4ccc(C(F)(F)F)cc4[N+](=O)[O-])ccc3n2)=N1` [GST #4] was run?
A: Its light emission values is 1571.

Same assay, conditions: Derivative Conc. 6.25; Co A

Q: For `COC(=O)[C@H]1CSC(c2ccc3cc(Oc4ccc(C(F)(F)F)cc4[N+](=O)[O-])ccc3n2)=N1` [GST #4], which light emission values is on record?
A: Its light emission values is 1562.

Same assay, conditions: Derivative Conc. 6.25; Co A + DTT

Q: For `COC(=O)[C@H]1CSC(c2ccc3cc(Oc4ccc(C(F)(F)F)cc4[N+](=O)[O-])ccc3n2)=N1` [GST #4], which light emission values is on record?
A: Its light emission values is 1730.

Same assay, conditions: Derivative Conc. 6.25; DTT

Q: How did the light emission values turn out when `COC(=O)[C@H]1CSC(c2ccc3cc(Oc4ccc(C(F)(F)F)cc4[N+](=O)[O-])ccc3n2)=N1` [GST #4] was run?
A: Its light emission values is 1633.

Same assay, conditions: Derivative Conc. 12.5; Alone

Q: Which light emission values does the source give for `COC(=O)[C@H]1CSC(c2ccc3cc(Oc4ccc(C(F)(F)F)cc4[N+](=O)[O-])ccc3n2)=N1` [GST #4] here?
A: The light emission values was 1692.

Same assay, conditions: Derivative Conc. 12.5; Co A

Q: How did the light emission values turn out when `COC(=O)[C@H]1CSC(c2ccc3cc(Oc4ccc(C(F)(F)F)cc4[N+](=O)[O-])ccc3n2)=N1` [GST #4] was run?
A: Its light emission values is 1275.

Same assay, conditions: Derivative Conc. 12.5; Co A + DTT

Q: Which light emission values does the source give for `COC(=O)[C@H]1CSC(c2ccc3cc(Oc4ccc(C(F)(F)F)cc4[N+](=O)[O-])ccc3n2)=N1` [GST #4] here?
A: The light emission values was 1891.

Same assay, conditions: Derivative Conc. 12.5; DTT

Q: Which light emission values does the source give for `COC(=O)[C@H]1CSC(c2ccc3cc(Oc4ccc(C(F)(F)F)cc4[N+](=O)[O-])ccc3n2)=N1` [GST #4] here?
A: The light emission values was 1474.

Same assay, conditions: Derivative Conc. 25; Alone

Q: For `COC(=O)[C@H]1CSC(c2ccc3cc(Oc4ccc(C(F)(F)F)cc4[N+](=O)[O-])ccc3n2)=N1` [GST #4], which light emission values is on record?
A: Its light emission values is 1413.

Same assay, conditions: Derivative Conc. 25; Co A

Q: For `COC(=O)[C@H]1CSC(c2ccc3cc(Oc4ccc(C(F)(F)F)cc4[N+](=O)[O-])ccc3n2)=N1` [GST #4], which light emission values is on record?
A: The light emission values was 1026.

Same assay, conditions: Derivative Conc. 25; Co A + DTT

Q: With `COC(=O)[C@H]1CSC(c2ccc3cc(Oc4ccc(C(F)(F)F)cc4[N+](=O)[O-])ccc3n2)=N1` [GST #4] as the compound, how does the light emission values read?
A: The light emission values was 1640.

Same assay, conditions: Derivative Conc. 25; DTT

Q: `COC(=O)[C@H]1CSC(c2ccc3cc(Oc4ccc(C(F)(F)F)cc4[N+](=O)[O-])ccc3n2)=N1` [GST #4] was tested. Which light emission values did it give?
A: The light emission values was 1492.

Same assay, conditions: Derivative Conc. 50; Alone

Q: Which light emission values does the source give for `COC(=O)[C@H]1CSC(c2ccc3cc(Oc4ccc(C(F)(F)F)cc4[N+](=O)[O-])ccc3n2)=N1` [GST #4] here?
A: The light emission values was 1598.

Same assay, conditions: Derivative Conc. 50; Co A

Q: Which light emission values does the source give for `COC(=O)[C@H]1CSC(c2ccc3cc(Oc4ccc(C(F)(F)F)cc4[N+](=O)[O-])ccc3n2)=N1` [GST #4] here?
A: Its light emission values is 1366.

Same assay, conditions: Derivative Conc. 50; Co A + DTT

Q: For `COC(=O)[C@H]1CSC(c2ccc3cc(Oc4ccc(C(F)(F)F)cc4[N+](=O)[O-])ccc3n2)=N1` [GST #4], which light emission values is on record?
A: The light emission values was 1729.

Same assay, conditions: Derivative Conc. 50; DTT

Q: Which light emission values does the source give for `COC(=O)[C@H]1CSC(c2ccc3cc(Oc4ccc(C(F)(F)F)cc4[N+](=O)[O-])ccc3n2)=N1` [GST #4] here?
A: Its light emission values is 1354.

Same assay, conditions: Derivative Conc. 100; Alone

Q: With `COC(=O)[C@H]1CSC(c2ccc3cc(Oc4ccc(C(F)(F)F)cc4[N+](=O)[O-])ccc3n2)=N1` [GST #4] as the compound, how does the light emission values read?
A: Its light emission values is 2119.

Same assay, conditions: Derivative Conc. 100; Co A

Q: With `COC(=O)[C@H]1CSC(c2ccc3cc(Oc4ccc(C(F)(F)F)cc4[N+](=O)[O-])ccc3n2)=N1` [GST #4] as the compound, how does the light emission values read?
A: The light emission values was 1853.

Same assay, conditions: Derivative Conc. 100; Co A + DTT

Q: `COC(=O)[C@H]1CSC(c2ccc3cc(Oc4ccc(C(F)(F)F)cc4[N+](=O)[O-])ccc3n2)=N1` [GST #4] was tested. Which light emission values did it give?
A: The light emission values was 1990.

Same assay, conditions: Derivative Conc. 100; DTT

Q: Which light emission values does the source give for `COC(=O)[C@H]1CSC(c2ccc3cc(Oc4ccc(C(F)(F)F)cc4[N+](=O)[O-])ccc3n2)=N1` [GST #4] here?
A: Its light emission values is 1618.
